Assay results as given in patent US9226929B2, “Pharmaceutically active disubstituted triazine derivatives” (Bayer Intellectual Property GMBH, priority 2011, dated 2016).

What was measured:
[1] = biological target: T1, CDK7/CyclinH/MAT1 (Homo sapiens, UniProt P50613); test: LanthaScreen Eu Kinase Binding Assay, CDK7; conditions: tracer 236, read-out: CDK7 (activity range), Kd
T1 construct: His; purchased Carna Biosciences
Method: (§1) This protocol describes how the LanthaScreen Eu Kinase Binding Assay was performed to determine dissociation constants (Kd) of compounds of general formula (I) and CDK/Cyclin complexes. The principle behind this assay is based upon the binding and displacement of an Alexa Fluor 647-labeled tracer, which binds to the active site of kinases. Binding of the tracer to the kinase is detected using a Eu-labeled antibody. Simultaneous binding of both the tracer and antibody to the kinase gives rise to a FRET-signal. Binding of an inhibitor to the kinase competes for binding with the tracer, resulting in a loss of FRET.
(§2) The compounds of general formula (I) summarized in Table 1 were diluted from a 10 mM DMSO stock solution 1:10 in a total volume of 15 μL DMSO. This compound predilution was then serial diluted 1:3 over 8 steps in DMSO and briefly spun down. Each compound solution was now diluted 1:33.33 in kinase buffer (HEPES: 20 mM, pH: 8.0; MgCl2: 10 mM; DTT: 1 mM; Brij-35: 0,01%), mixed thoroughly and spun down. For every sample, 5 μL of the diluted compound were mixed with 5 μL tracer working solution (e.g. 60 nM tracer 236 in kinase buffer for CDK2/Cyclin A) and 5 μL CDK/Cyclin/Anti-GST-AB-working solution (e.g. 15 nM CDK2/Cyclin A, 1:250 dilution of Anti-GST-AB in kinase buffer) in a well of a small volume 384 well plate (Corning Incorporated, Corning, N.Y., USA; order no. 3673). The tracer concentration was adjusted to its dissociation constant (Kd) for the CDK/Cyclin, which was 30 nM for CDK2/Cyclin A, CDK7/Cyclin H and CDK9/Cyclin T1, 20 nM for CDK8/Cyclin C, and 35 nM for CDK9/Cyclin K. For negative controls, in each well 5 μL of DMSO working solution (3% DMSO diluted in kinase buffer) was mixed with 5 μL Anti-GST-AB working solution (e.g. 1:250 dilution of Anti-GST-AB in kinase buffer for CDK2/Cyclin A) and 5 μL Tracer working solution (e.g. 60 nM Tracer 236 in kinase buffer for CDK2/Cyclin A). For positive controls, in each well 5 μL of DMSO working solution (3% DMSO diluted in kinase buffer) was mixed with 5 μL CDK/Cyclin/Anti-GST-AB-working solution: (e.g. 15 nM CDK2/Cyclin A, 1:250 dilution of Anti-GST-AB in kinase buffer) and 5 μL Tracer working solution (e.g. 60 nM Tracer 236 in kinase buffer for CDK2/Cyclin A). Positive and negative controls were calculated from at least 8 different sample wells. The 384 well plates were mixed in a Teleshaker plate mixer (Beckman Coulter, Brea, Calif., USA) at 2000 rpm for 40 sec, and incubated for 1 h at room temperature before reading. The FRET signal was measured at 340 nm excitation, 665 nm and 615 nm emission (for the kinase tracer and LanthaScreen Eu-AB, respectively) with an Envision spectrophotometer (Perkin Elmer, Waltham, Mass., USA) with […]. Kd values were determined from the sigmoidal dose response curves with the software Quattro Workflow (Quattro GmbH, Munich, Germany).

[2] = biological target: T2, CDK9/Cyclin K (Homo sapiens, UniProt P50750); test: LanthaScreen Eu Kinase Binding Assay, CDK9/Cyclin K; conditions: tracer 236, read-out: CDK9/Cyclin K (activity range), Kd
T2 construct: His; purchased Invitrogen
T2 sequence (P50750 whole entry): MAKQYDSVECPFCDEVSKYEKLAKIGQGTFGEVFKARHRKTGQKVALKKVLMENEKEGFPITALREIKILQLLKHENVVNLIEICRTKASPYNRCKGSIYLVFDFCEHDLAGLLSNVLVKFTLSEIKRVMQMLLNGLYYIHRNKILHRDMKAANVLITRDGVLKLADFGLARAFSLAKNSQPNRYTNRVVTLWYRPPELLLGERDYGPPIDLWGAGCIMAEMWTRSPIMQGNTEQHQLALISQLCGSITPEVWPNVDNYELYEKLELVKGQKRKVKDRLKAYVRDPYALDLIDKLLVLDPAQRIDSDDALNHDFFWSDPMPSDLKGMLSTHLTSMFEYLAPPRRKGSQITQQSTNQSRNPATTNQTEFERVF
T2 sequence (O75909 1-357 isoform O75909-1 partner): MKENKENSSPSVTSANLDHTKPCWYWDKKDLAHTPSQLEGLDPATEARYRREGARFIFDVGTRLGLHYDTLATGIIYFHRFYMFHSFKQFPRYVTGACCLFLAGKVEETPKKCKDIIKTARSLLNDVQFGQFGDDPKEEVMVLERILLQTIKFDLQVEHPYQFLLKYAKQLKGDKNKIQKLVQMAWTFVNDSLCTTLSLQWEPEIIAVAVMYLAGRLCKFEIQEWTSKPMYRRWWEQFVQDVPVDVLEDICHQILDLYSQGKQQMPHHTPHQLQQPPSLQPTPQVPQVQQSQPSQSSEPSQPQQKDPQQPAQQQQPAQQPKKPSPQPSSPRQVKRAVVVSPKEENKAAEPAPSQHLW
Method: as §1, §2

[3] = biological target: T3, CDK2/CyclinA (Homo sapiens, UniProt P24941); test: LanthaScreen Eu Kinase Binding Assay, CDK2; conditions: tracer 236, read-out: CDK2 (activity range), Kd
T3 construct: GST; purchased Proqinase
Method: as §1, §2

[4] = biological target: T4, CDK9/Cyclin T1 (Homo sapiens, UniProt P50750); test: LanthaScreen Eu Kinase Binding Assay, CDK9/Cyclin T1; conditions: tracer 236, read-out: CDK9/Cyclin T1 (activity range), Kd
T4 construct: His; purchased Invitrogen
T4 sequence (P50750 whole entry): as the sequence (P50750 whole entry) above
T4 sequence (O60563 whole entry partner): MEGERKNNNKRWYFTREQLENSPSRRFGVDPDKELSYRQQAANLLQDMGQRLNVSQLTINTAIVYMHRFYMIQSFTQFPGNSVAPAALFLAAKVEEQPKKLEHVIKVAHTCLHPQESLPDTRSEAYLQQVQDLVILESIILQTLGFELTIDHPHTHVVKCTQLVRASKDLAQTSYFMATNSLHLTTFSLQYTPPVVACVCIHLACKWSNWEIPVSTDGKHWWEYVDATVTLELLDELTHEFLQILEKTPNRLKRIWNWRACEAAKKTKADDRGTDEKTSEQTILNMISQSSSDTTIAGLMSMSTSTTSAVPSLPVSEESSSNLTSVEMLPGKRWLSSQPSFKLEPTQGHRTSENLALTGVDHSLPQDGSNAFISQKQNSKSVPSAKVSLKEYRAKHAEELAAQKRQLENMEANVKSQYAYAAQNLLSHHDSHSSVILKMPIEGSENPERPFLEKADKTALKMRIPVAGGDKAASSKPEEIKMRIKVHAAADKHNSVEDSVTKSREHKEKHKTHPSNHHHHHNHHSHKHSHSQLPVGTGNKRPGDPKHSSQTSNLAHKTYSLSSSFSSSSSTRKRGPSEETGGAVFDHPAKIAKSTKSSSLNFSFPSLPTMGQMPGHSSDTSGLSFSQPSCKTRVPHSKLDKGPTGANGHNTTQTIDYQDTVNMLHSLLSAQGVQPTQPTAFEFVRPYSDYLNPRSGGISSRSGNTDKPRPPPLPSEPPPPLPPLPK
Method: as §1, §2

[5] = biological target: T5, CDK9 (Homo sapiens, UniProt P50750); test: Lance Ultra KinaSelect Assay, CDK9; type: biochemical; conditions: cyclin partner (T1 or K) not stated; read-out: CDK9 LANCE assay (activity range), IC50
T5 construct: purchased Invitrogen
T5 sequence (P50750 whole entry): as the sequence (P50750 whole entry) above
Method: (§3) 2. Measurement of half maximal inhibitory concentration to CDKs This protocol describes how the Lance Ultra KinaSelect Assay was performed to determine half maximal inhibitory concentration (1050) of compounds of general formula (I) and CDK/Cyclin complexes. The principle behind this enzymatic assay is based upon the phosphorylation of the ULight-Peptide Substrat. It is detected by using a specific
(§4) EU-labeled anti-phospho peptide antibody. The binding of the Eu-labeled anti-phospho peptide antibody to the phosphorylated ULight labeled peptide gives rise to a FRET-signal. Binding of an inhibitor to the kinase prevents phosphorylation of the ULight-MBP Substrat, resulting in a loss of FRET.
(§5) The compounds of general formula (I) summarized in Table 5 were diluted from a 10 mM DMSO stock solution 1:10 in a total volume of 15 μL DMSO. This compound predilution was then serial diluted 1:3 over 8 steps in DMSO and briefly spun down. Each compound solution was now diluted 1:20 in Enzymatic Buffer (HEPES: 50 mM, pH: 7.5; MgCl2: 10 mM; EGTA: 1 mM; DTT: 2 mM; Tween-20: 0.01%), mixed thoroughly and spun down. For every sample, 2 μL of the diluted compound were mixed with 6 μL CDK/Cyclin/Substrat solution and 2 μL ATP solution in a well of a small volume 384 well plate (Corning Incorporated, Corning, N.Y., USA; order no. 3673). The CDK/Cyclin was diluted to the appropriate concentration (see Table 3) and the ATP concentration was adjusted to its […] for the CDK/Cyclin, which was 3 μM for CDK2/Cyclin A, 20 μM for CDK1/Cyclin B1, 25 μM for CDK7/Cyclin H and CDK9/Cyclin T1, 55 μM for CDK6/Cyclin D3, 90 μM for CDK4/Cyclin D1 and 125 μM for CDK9/Cyclin K. For negative controls, in each well 2 μL of DMSO solution (1% final DMSO assay concentration) was mixed with 6 μL substrate solution (50 nM ULight MBP final assay concentration) and 2 μL ATP solution (appropriate final concentration see Table 3). For positive controls, in each well 2 μL of DMSO solution (1% final DMSO assay concentration) was mixed with 6 μL CDK/Cyclin/Substrat (appropriate final concentration see Table 3) and 2 μL Tracer ATP solution (appropriate final concentration see Table 3). Positive and negative controls were calculated from at least 8 different sample wells. The 384 well plates were mixed in a Teleshaker plate mixer (Beckman Coulter, Brea, Calif., USA) at 2000 rpm for 40 sec, and incubated for 1 h at room temperature. Before reading, 10 μL the detection buffer (Lance Detection Buffer 1×; EDTA: […]; Eu-Anti-P-MBP: see Table 3) was added. The FRET signal was measured at 340 nm excitation, 665 nm and 615 nm emission (for the kinase tracer and LanthaScreen Eu-AB, respectively) with an Envision spectrophotometer (Perkin Elmer, Waltham, Mass., USA) with 50 μs delay and 300 μs integration time. IC50 values were determined from the sigmoidal dose response curves with the software Quattro Workflow (Quattro GmbH, Munich, Germany).

[6] = biological target: T3, CDK2/CyclinA; test: Lance Ultra KinaSelect Assay, CDK2; type: biochemical; conditions: ATP 3 μM; read-out: CDK2 LANCE assay (activity range), IC50
Method: as §3, §4, §5

T1 sequence (P50613 whole entry): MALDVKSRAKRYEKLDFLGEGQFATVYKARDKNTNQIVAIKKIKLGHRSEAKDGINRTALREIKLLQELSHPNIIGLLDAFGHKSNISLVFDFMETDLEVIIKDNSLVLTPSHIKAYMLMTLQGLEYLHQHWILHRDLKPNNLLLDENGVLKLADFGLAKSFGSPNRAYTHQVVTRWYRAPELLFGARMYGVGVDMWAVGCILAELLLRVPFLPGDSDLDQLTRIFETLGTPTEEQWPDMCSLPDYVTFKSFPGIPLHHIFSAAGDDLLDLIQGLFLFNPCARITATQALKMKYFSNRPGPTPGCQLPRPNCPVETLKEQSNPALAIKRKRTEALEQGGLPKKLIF
T1 sequence (P51946 whole entry partner): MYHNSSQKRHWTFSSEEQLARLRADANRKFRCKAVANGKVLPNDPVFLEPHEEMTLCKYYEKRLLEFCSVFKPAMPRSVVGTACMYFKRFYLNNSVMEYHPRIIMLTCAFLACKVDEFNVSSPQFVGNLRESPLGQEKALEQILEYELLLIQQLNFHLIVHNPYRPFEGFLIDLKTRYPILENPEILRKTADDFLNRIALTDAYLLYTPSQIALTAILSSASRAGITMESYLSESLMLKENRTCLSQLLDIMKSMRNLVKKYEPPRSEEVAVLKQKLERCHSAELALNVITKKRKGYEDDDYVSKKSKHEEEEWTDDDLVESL
T1 sequence (P51948 whole entry partner): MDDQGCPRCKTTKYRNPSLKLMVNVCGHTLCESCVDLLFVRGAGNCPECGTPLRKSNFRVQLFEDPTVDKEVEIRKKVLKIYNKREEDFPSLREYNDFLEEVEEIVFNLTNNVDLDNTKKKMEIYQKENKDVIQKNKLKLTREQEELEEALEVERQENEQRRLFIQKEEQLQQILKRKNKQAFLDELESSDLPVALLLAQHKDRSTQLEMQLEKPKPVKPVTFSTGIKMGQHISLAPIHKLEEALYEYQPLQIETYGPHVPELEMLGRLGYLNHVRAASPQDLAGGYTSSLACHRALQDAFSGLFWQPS

Kd [1] | Kd [2] | Kd [3] | Kd [4] | IC50 [5] | IC50 [6] | SMILES
> 10 µM | < 0.1 µM | 0.1 to 1 µM | < 0.1 µM | – | – | NS(=O)(=O)Cc1cccc(Nc2ncnc(N3CCc4ccccc43)n2)c1 [Compound B52, 3-[(4-(Indolin-1-yl)-1,3,5-triazin-2-yl)amino]-benzenemethane sulfonamide]
> 10 µM | 0.1 to 1 µM | > 10 µM | 0.1 to 1 µM | – | – | COC[C@H]1CCCCN1c1ncnc(Nc2cccc(CS(N)(=O)=O)c2)n1 [Compound B5, (R)-3-[(4-(2-Methoxymethylpiperidin-1-yl)-1,3,5-triazin-2-yl)amino]-benzenemethanesulfonamide]
> 10 µM | – | 1 to 10 µM | 0.1 to 1 µM | 1 to 10 µM | 1 to 10 µM | NS(=O)(=O)Cc1cccc(Nc2ncnc(N3CCC[C@@H]3C(F)(F)F)n2)c1 [Compound B54, (R)-3-[(4-(2-(Trifluoromethyl)pyrrolidin-1-yl)-1,3,5-triazin-2-yl)amino]-benzenemethanesulfonamide]
> 10 µM | < 0.1 µM | 0.1 to 1 µM | < 0.1 µM | – | – | NS(=O)(=O)Cc1cccc(Nc2ncnc(N3CCCc4ccccc43)n2)c1 [Compound B42, 3-[(4-(3,4-Dihydroquinolin-1(2H)-yl)-1,3,5-triazin-2-yl)amino]-benzenemethanesulfonamide]
> 10 µM | 1 to 10 µM | > 10 µM | 1 to 10 µM | – | – | NS(=O)(=O)Cc1cccc(Nc2ncnc(N3CCC[C@H]3CO)n2)c1 [Compound B25, (S)-3-[(4-(2-(Hydroxymethyl)pyrrolidin-1-yl)-1,3,5-triazin-2-yl)amino]-benzenemethanesulfonamide]
> 10 µM | 1 to 10 µM | > 10 µM | 0.1 to 1 µM | – | – | COC[C@H]1CCN1c1ncnc(Nc2cccc(CS(N)(=O)=O)c2)n1 [Compound B35, (R)-3-[(4-(2-(Methoxymethyl)azetidin-1-yl)-1,3,5-triazin-2-yl)amino]-benzenemethanesulfonamide]
> 10 µM | – | 1 to 10 µM | < 0.1 µM | 0.1 to 1 µM | 1 to 10 µM | C[C@H]1CCCN1c1ncnc(Nc2cccc(CS(N)(=O)=O)c2)n1 [Compound B53, (S)-3-[(4-(2-Methylpyrrolidin-1-yl)-1,3,5-triazin-2-yl)amino]-benzenemethanesulfonamide]
> 10 µM | > 10 µM | > 10 µM | 1 to 10 µM | – | – | COC[C@@H]1CCCN1c1ncnc(Nc2cccc(CS(N)(=O)=O)c2)n1 [Compound B18, (S)-3-[(4-(2-(Methoxymethyl)pyrrolidin-1-yl)-1,3,5-triazin-2-yl)amino]benzenemethanesulfonamide]
> 10 µM | > 10 µM | > 10 µM | 1 to 10 µM | – | – | NS(=O)(=O)Cc1cccc(Nc2ncnc(N3CCC[C@@H]3CN3CCCC3)n2)c1 [Compound B31, (R)-3-[(4-(2-((Pyrrolidin-1-yl)methyl)pyrrolidin-1-yl)-1,3,5-triazin-2-yl)amino]benzenemethanesulfonamide]
1 to 10 µM | 0.1 to 1 µM | 1 to 10 µM | 0.1 to 1 µM | – | – | NS(=O)(=O)Cc1cccc(Nc2ncnc(N3CCOCC3)n2)c1 [Compound B10, 3-[(4-(Morpholin-4-yl)-1,3,5-triazin-2-yl)amino]benzenemethane sulfonamide]
> 10 µM | 1 to 10 µM | > 10 µM | 1 to 10 µM | – | – | NS(=O)(=O)Cc1cccc(Nc2ncnc(N3CCC[C@@H]3CO)n2)c1 [Compound B24, (R)-3-[(4-(2-(Hydroxymethyl)pyrrolidin-1-yl)-1,3,5-triazin-2-yl)amino]-benzenemethanesulfonamide]
> 10 µM | > 10 µM | – | > 10 µM | – | – | NS(=O)(=O)Cc1cccc(Nc2ncnc(N3CCC[C@H]3CN3CCCC3)n2)c1 [Compound B32, (S)-3-[(4-(2-((Pyrrolidin-1-yl)methyl)pyrrolidin-1-yl)-1,3,5-triazin-2-yl)amino]benzenemethanesulfonamide]
> 10 µM | 0.1 to 1 µM | – | 0.1 to 1 µM | – | – | NS(=O)(=O)Cc1cccc(Nc2ncnc(N3CCC3c3ccccc3)n2)c1 (racemic) [Compound B37, rac-3-[(4-(2-Phenylazetidin-1-yl)-1,3,5-triazin-2-yl)amino]-benzenemethanesulfonamide]
> 10 µM | 1 to 10 µM | – | 1 to 10 µM | – | – | COC(=O)[C@H]1CCN1c1ncnc(Nc2cccc(CS(N)(=O)=O)c2)n1 [Compound B36, (R)-Methyl 1-[4-((3-(Sulfamoylmethyl)phenyl)amino)-1,3,5-triazin-2-yl]azetidine-2-carboxylate]
> 10 µM | 1 to 10 µM | – | 1 to 10 µM | – | – | NS(=O)(=O)Cc1cccc(Nc2ncnc(N3CCCC3CCc3ccccc3)n2)c1 (racemic) [Compound B27, rac-3-[(4-(2-(2-Phenylethyl)pyrrolidin-1-yl)-1,3,5-triazin-2-yl)amino]-benzenemethanesulfonamide]
> 10 µM | > 10 µM | – | > 10 µM | – | – | COC[C@@H]1CC[C@@H](COC)N1c1ncnc(Nc2cccc(CS(N)(=O)=O)c2)n1 [Compound B20]
